“Also recorded” adds a separate entry of the source.
What was measured:
[1] = tested on: RWPE cells transduced with ERG adenovirus; assay: Basement membrane matrix invasion assay, RWPE cells transduced with ERG adenovirus; type: cell-based, human; settings: P<0.01 for DNA-PKcs siRNA or NU7026>10 μM, P<0.05 for all PARP1 siRNA, NU1025 or Olaparib treatments
Procedure: (§1) For invasion assays, the prostate cell lines RWPE-1 and VCaP were transfected with siRNA or negative controls as indicated. NU7026 (Sigma) and NU1025 (Calbiochem) were dissolved in DMSO and stored at −20° C. in the dark. Forty-eight hours post-transfection/transduction, cells were seeded onto the basement membrane matrix (EC matrix, Chemicon, Temecula, Calif.) in the chamber insert with […] pores of a 24-well culture plate in serum free media. Cells were attracted to the lower chamber by the addition of complete media as a chemoattractant. After 48 hours incubation at 37° C. with 5% CO2, the non-invading cells and EC matrix were gently removed with a cotton swab. Invasive cells, which were located on the lower side of the membrane, were stained with crystal violet, air dried and photographed. To quantify the relative number of invaded cells, colorimetric assays were performed by treating the inserts with 150 μl of 10% acetic acid (v/v) and measuring absorbance of each condition at 560 nm using a spectrophotometer (GE Healthcare).

MDA-MB-231 (BRCA1/2 WT) = assay: CAM xenograft tumors, MDA-MB-231; type: in vivo, chicken embryo; settings: Olaparib treatment
Procedure: (§2) The CAM assay was performed as described previously (Zijlstra, A., et al., Cancer research 62, 7083-7092 (2002)). Briefly, fertilized eggs were incubated in a rotary humidified incubator at 38° C. with for 10 days. After releasing the CAM by applying mild amount of low pressure to the hole over the air sac and cutting a square 1-cm^2 window encompassing a second hole near the allantoic vein, cultured human cells that had been pre-treated with siRNA as indicated were detached by trypsinization and re-suspended in complete medium prior to implantation of 2×10^6 cells adjacent to the mesenchyme in each egg. The windows were subsequently, sealed and the eggs were returned to a stationary incubator. Cells were then treated as indicated with 40 mg/kg body weight Olaparib which was administered on day 13, 15 and 17. Day 18 embryos were sacrificed. Tumors were then excised and weighed. […] After incubation of either the metastasis or intravasation assays, the extra-embryonic tumor and CAM, as well as the embryonic liver were harvested and analyzed for the presence of tumor cells by quantitative human alu-specific PCR. […] Quantification of human cells in the extracted DNA was done as described^14. Fluorogenic TaqMan qPCR probes were applied as above, and DNA copy numbers were quantified.

panel of cell lines = assay: WST chemosensitivity assay (72 hours); type: cell-based; settings: after 72 hours, any of the cell lines tested
[2] = tested on: MDA-PCa-133 (ERG positive); assay: Human prostate cancer tissue xenograft (primagraft) MDA-PCa-133; type: in vivo, mice; settings: MDA-PCa-133, 40 mg/kg Olaparib; P=0.05 (Day 8), P<0.01 (day 16, 24 and 32)
Procedure: (§3) Human prostate cancer specimens MDA-PCa 2b-T (ETV1 positive), MDA-PCa-133 (ERG positive) and MDA PCa 118b (ETS-negative) were obtained (Li, Z. G., et al. The Journal of clinical investigation 118, 2697-2710 (2008)). Each xenografted tumor tissue was aseptically harvested from the host mice. New recipient mice were anesthetized by injecting […] intraperitoneally for chemical restraint before tumor implantation. About 0.5 cm^3 size of the excised tumor tissue was directly implanted into subcutaneous pockets of 6- to 8-week-old male CB17 SCID mice (Charles River Laboratories) in a laminar flow sterile hood. Sub-cutaneous pocket was carefully closed by applying 1 or 2 wound clips. All mice were monitored for 24 hours after implantation procedure for any apparent physiologic disturbances or missing wound clips. Olaparib (40 mg/Kg body weight) treatment was started after 72 hours. […] Body weight was also monitored weekly during the course of the study.

[3] = tested on: ERG-target gene expression; assay: qPCR of ERG-target genes in staged PC3-ERG tumors; type: in vivo, mice; settings: 4 hours, 40 mg/kg Olaparib or 25 mg/kg NU7026
LNCaP = assay: CAM liver metastasis assay, LNCaP; type: in vivo, chicken embryo; settings: LNCaP (ETS positive), eggs treated every other day with Olaparib, P=0.1
Procedure: as §2

[4] = tested on: VCaP and PC3 xenograft tumors; assay: Ki67 and CD31 immunohistochemistry on tissue microarray of VCaP and PC3 xenograft tumors; settings: pairwise t-test
VCaP cells = assay: Basement membrane matrix invasion assay, VCaP cells; type: cell-based, human; settings: P<0.01 for DNA-PKcs siRNA or NU7026>10 μM; P<0.05 for all PARP1 siRNA, NU1025 or Olaparib treatments
Procedure: as §1

[5] = tested on: RWPE cells stably overexpressing ETV1; assay: Basement membrane matrix invasion assay, RWPE-ETV1 cells; type: cell-based, human; settings: P<0.01 for all PARP1 or DNA-PKcs treatments
Procedure: as §1

PC3 = assay: Basement membrane matrix invasion assay, PC3 cells; type: cell-based, human
[6] = tested on: MDA-PCa-2b-T (ETV1 positive); assay: Human prostate cancer tissue xenograft (primagraft) MDA-PCa-2b-T; type: in vivo, mice; settings: 40 mg/kg Olaparib, P<0.01 (day 8, 12 and 16)
Procedure: as §3

[7] = tested on: MDA-PCa-118b (ETS negative); assay: Human prostate cancer tissue xenograft (primagraft) MDA-PCa-118b; type: in vivo, mice; settings: 40 mg/kg Olaparib
Procedure: as §3

PC3-ERG cells = assay: Neutral COMET assay, ERG overexpressing PC3 cells versus controls; type: cell-based, human
[8] = tested on: PC3 model overexpressing T2:ERG; assay: γH2A.X foci after radiation (DNA double strand break repair), isogenic PC3 model; type: cell-based; settings: PC3, pre-treated with 10 μM Olaparib, then radiation
Procedure: The effect of ETS overexpression on repair of DNA double strand breaks was assayed. Isogenic PC3 and DU145 models, respectively, overexpressing either T2:ERG or ERG with a deleted ETS domain were pre-treated with or without 10 μM Olaparib and then treated with radiation. Immunofluorescence staining of γH2A.X foci was used to assess total levels of DNA damage and repair rate. The number of cells with >10 γH2A.X foci were quantified at each time point as indicated. Representative photomicrographs were taken 24 hours after treatment using an Olympus confocal microscope with a 100× Oil objective. All experiments were run in triplicate. Error bars are standard error of the mean.

SMILES: O=C(c1cc(Cc2n[nH]c(=O)c3ccccc23)ccc1F)N1CCN(C(=O)C2CC2)CC1 [Olaparib, 4-[3-(4-Cyclopropanecarbonylpiperazine-1-carbonyl)-4-fluorobenzyl]-2H-phthalazin-1-one]
- ERG-driven cell invasion [1]: blocks ERG-mediated RWPE cell invasion; also recorded: significant reduction
- effect on tumors (MDA-MB-231 (BRCA1/2 WT)): no measurable effect
- in vitro cell proliferation rate (panel of cell lines): did not have an effect
- primagraft growth [2]: inhibited the growth
- ERG-target gene expression in tumors (qPCR) [3]: loss of ERG-target gene expression
- formation of liver metastases (LNCaP): blocked the formation of liver metastases
- average number of Ki67 positive cells [4]: Neither NU7026 nor Olaparib consistently led to a significant change; also recorded: no significant change
- microvessel density (CD31) [4]: Neither NU7026 nor Olaparib consistently led to a significant change; also recorded: no significant change
- VCaP cell invasion (VCaP cells): significant reduction; also recorded: blocks VCaP cell invasion
- ETV1-mediated invasion [5]: does now effect invasion
- invasion of PC3 (ETS rearrangement negative control) (PC3): does now effect invasion
- primagraft growth [6]: inhibited the growth
- primagraft growth [7]: had no effect
- potentiated DNA damage (COMET), time course (PC3-ERG cells; PC3-ERG relative to PC3-LACZ, 0.5, 1, 24 and 48 hr exposure, as early as 30 min (p=0.002)): potentiated DNA damage was observed
- COMET tail moment increase, ERG positive cells versus controls (PC3-ERG cells; PC3 cells with and without Olaparib, P=0.03, two-way ANOVA): significantly greater increase in the tail moments
- ERG-enhanced DNA DSB damage repair (γH2A.X foci) [8]: blocked; also recorded: reversed by PARP inhibition

— patent US20120035244A1, “PARP1 TARGETED THERAPY” (THE REGENTS OF THE UNIVERSITY OF MICHIGAN, priority 2010, published 2012)
